# Results: US9999664B2, “HIV-1 gp120 mini V3 loop and uses thereof” (The Scripps Research Institute, priority 2011, dated 2018)
# Columns and labels:
# PGT 127 = experiment: Neoglycolipid microarray binding, PGT 127; conditions: PGT 127 at 10 μg/ml pre-complexed with biotinylated anti-human-IgG; 5 fmol/spot
# Procedure: (§1) The microarrays (designated N-glycan-related Array Set 1) consisted of NGLs prepared by reductive amination (70) or oxime ligation (71) (Table S5). These were robotically printed onto nitrocellulose-coated glass slides as described (72), each at two levels (2 and 5 fmol/spot) in duplicate. The binding assays (70) were performed at ambient temperature. The PGTs 127 and 128 were pre-complexed with biotinylated anti-human-IgG (Vector) at a 1:3 ratio, w/w, before applying onto the slides at a final concentration of 10 μg/ml. Biotinylated ConA (Vector) was tested at 0.5 μg/ml. Binding was detected with Alexa-Fluor 647 labelled streptavidin (Molecular Probes) at 1 μg/ml. Microarray data analysis was performed with dedicated software. Binding signals were oligosaccharide dose-related. Results at 5 fmol/spot with selected oligomannose NGLs (prepared by reductive amination) are in FIG. 9A, and the full data with the 50 NGLs are shown in Table S6. Included for comparison are the results with human 2G12 (Polymun Scientific) taken from an earlier experiment performed using a different version of microarrays (73). Antibody 2G12 was analyzed at 1:10000 dilution (without pre-complexation), and the binding was detected with biotinylated anti-human-IgG followed by Alexa-Fluor 647 labelled streptavidin.
# 2G12 = 2G12 at 1:10000 dilution; earlier experiment, different version of the microarray; cited from earlier work
# PGT 128 = experiment: Neoglycolipid microarray binding, PGT 128; conditions: PGT 128 at 10 μg/ml pre-complexed with biotinylated anti-human-IgG; 5 fmol/spot
# Procedure: as §1
# plant lectin ConA = molecular target: T1, plant lectin ConA (Canavalia ensiformis, UniProt P02866); experiment: Neoglycolipid microarray binding, ConA; conditions: biotinylated ConA at 0.5 μg/ml
# T1 construct: purchased Vector
# Procedure: as §1
# [1] = molecular target: HIV-1 JR-CSF envelope (Env) on pseudovirus (HIV-1 JR-CSF) (UniProt P20871); experiment: cell-based or functional assay
# [2] = molecular target: HIV-1 BaL envelope (Env) on pseudovirus (HIV-1 BaL); experiment: cell-based or functional assay
# [3] = molecular target: gp120 JR-FL (HIV-1 JR-FL); experiment: gp120 ELISA
# gp120 BaL (HIV-1 BaL) = experiment: gp120 ELISA
# [4] = molecular target: gp120 JR-CSF (HIV-1 JR-CSF) (UniProt P20871); experiment: gp120 ELISA
Compound,Fluorescence signal intensity 127 (PGT 127),Fluorescence signal intensity 2G12 (2G12),Fluorescence signal intensity 128 (PGT 128),Fluorescence signal intensity ConA (plant lectin ConA),Fold change in neutralization (IC50 variant/IC50 WT antibody) [1] [fold],Fold change in neutralization (IC50 variant/IC50 WT antibody) [2] [fold],fold change in gp120 binding (EC50 variant/EC50 WT) [3] [fold],fold change in gp120 binding (EC50 variant/EC50 WT) (gp120 BaL (HIV-1 BaL)) [fold],fold change in gp120 binding (EC50 variant/EC50 WT) [4] [fold]
"CCCCCCCCCCCCCCCCOCC(COP(=O)(O)OCCNCC(O)C(OC1OC(CO)C(O)C(O)C1O)C(O)C(O)COC1OC(CO)C(O)C(O)C1O)OCCCCCCCCCCCCCCCC (stereo not drawn) [Man3(α3,α6)-DH]",— (Signal less than 1),— (Signal less than 1),— (Signal less than 1),759,–,–,–,–,–
CCCCCCCCCCCCCCCCOCC(COP(=O)(O)OCCNCC(NC(C)=O)C(O)C(OC1OC(CO)C(OC2OC(COC3OC(CO)C(O)C(O)C3O)C(O)C(OC3OC(CO)C(O)C(O)C3O)C2O)C(O)C1NC(C)=O)C(O)COC1OC(C)C(O)C(O)C1O)OCCCCCCCCCCCCCCCC (centres unmarked) [Man3FGN2-DH],— (Signal less than 1),52,— (Signal less than 1),"20,011",–,–,–,–,–
CCCCCCCCCCCCCCCCOCC(COP(=O)(O)OCCNCC(NC(C)=O)C(O)C(OC1OC(CO)C(OC2OC(COC3OC(CO)C(O)C(O)C3O)C(O)C(OC3OC(CO)C(O)C(O)C3O)C2OC2OCC(O)C(O)C2O)C(O)C1NC(C)=O)C(O)CO)OCCCCCCCCCCCCCCCC (centres unmarked) [Man3XylGN2-DH],— (Signal less than 1),— (Signal less than 1),— (Signal less than 1),977,–,–,–,–,–
CCCCCCCCCCCCCCCCOCC(COP(=O)(O)OCCNCC(NC(C)=O)C(O)C(OC1OC(CO)C(OC2OC(COC3OC(CO)C(O)C(O)C3O)C(O)C(OC3OC(CO)C(O)C(O)C3O)C2O)C(O)C1NC(C)=O)C(O)CO)OCCCCCCCCCCCCCCCC (centres unmarked) [Man3aGN2-DH],— (Signal less than 1),24,— (Signal less than 1),"14,192",–,–,–,–,–
CCCCCCCCCCCCCCCCOCC(COP(=O)(O)OCCNCC(NC(C)=O)C(O)C(OC1OC(CO)C(OC2OC(COC3OC(CO)C(O)C(OC4OC(CO)C(O)C(O)C4O)C3O)C(O)C(OC3OC(CO)C(O)C(O)C3O)C2O)C(O)C1NC(C)=O)C(O)CO)OCCCCCCCCCCCCCCCC (centres unmarked) [Man4aGN2-DH],— (Signal less than 1),— (Signal less than 1),26,"2,885",–,–,–,–,–
CCCCCCCCCCCCCCCCOCC(COP(=O)(O)OCCNCC(NC(C)=O)C(O)C(OC1OC(CO)C(OC2OC(COC3OC(COC4OC(CO)C(O)C(O)C4O)C(O)C(OC4OC(CO)C(O)C(O)C4O)C3O)C(O)C(O)C2O)C(O)C1NC(C)=O)C(O)CO)OCCCCCCCCCCCCCCCC (centres unmarked) [Man4bGN2-DH],— (Signal less than 1),— (Signal less than 1),— (Signal less than 1),"16,615",–,–,–,–,–
"CCCCCCCCCCCCCCCCOCC(COP(=O)(O)OCCNCC(O)C(OC1OC(CO)C(O)C(O)C1O)C(O)C(O)COC1OC(COC2OC(CO)C(O)C(O)C2O)C(O)C(OC2OC(CO)C(O)C(O)C2O)C1O)OCCCCCCCCCCCCCCCC (stereo not drawn) [Man5(α3,α6)-DH]",— (Signal less than 1),34,— (Signal less than 1),"15,291",–,–,–,–,–
CCCCCCCCCCCCCCCCOCC(COP(=O)(O)OCCNCC(NC(C)=O)C(O)C(OC1OC(CO)C(OC2OC(COC3OC(COC4OC(CO)C(O)C(O)C4O)C(O)C(OC4OC(CO)C(O)C(O)C4O)C3O)C(O)C(OC3OC(CO)C(O)C(O)C3O)C2O)C(O)C1NC(C)=O)C(O)CO)OCCCCCCCCCCCCCCCC (centres unmarked) [Man5GN2-DH],— (Signal less than 1),— (Signal less than 1),— (Signal less than 1),"16,390",–,–,–,–,–
CCCCCCCCCCCCCCCCOCC(COP(=O)(O)OCCNCC(NC(C)=O)C(O)C(OC1OC(CO)C(OC2OC(COC3OC(COC4OC(CO)C(O)C(O)C4O)C(O)C(OC4OC(CO)C(O)C(O)C4O)C3O)C(O)C(OC3OC(CO)C(O)C(O)C3OC3OC(CO)C(O)C(O)C3O)C2O)C(O)C1NC(C)=O)C(O)CO)OCCCCCCCCCCCCCCCC (centres unmarked) [Man6GN2-DH],— (Signal less than 1),49,— (Signal less than 1),"19,006",–,–,–,–,–
CCCCCCCCCCCCCCCCOCC(COP(=O)(O)OCCNCC(NC(C)=O)C(O)C(OC1OC(CO)C(OC2OC(COC3OC(COC4OC(CO)C(O)C(O)C4OC4OC(CO)C(O)C(O)C4O)C(O)C(OC4OC(CO)C(O)C(O)C4OC4OC(CO)C(O)C(O)C4O)C3O)C(O)C(OC3OC(CO)C(O)C(O)C3OC3OC(CO)C(O)C(O)C3OC3OC(CO)C(O)C(O)C3O)C2O)C(O)C1NC(C)=O)C(O)CO)OCCCCCCCCCCCCCCCC (centres unmarked) [Man9GN2-DH],"24,209","11,717","26,071","21,359",–,–,–,–,–
Glcα-6Glcα-6Glcα-6Glcα-6Glcα-6Glc-AO [Dextran-6-AO],— (Signal less than 1),— (Signal less than 1),— (Signal less than 1),"1,138",–,–,–,–,–
PGT 128 IgG variant HC A30S (antibody),–,–,–,–,0.9,1.4,0.7,0.6,0.8
PGT 128 IgG variant HC A31S (antibody),–,–,–,–,1.1,1.2,1.1,0.9,0.8
PGT 128 IgG variant HC D27A (antibody),–,–,–,–,0.9,1.6,1,1.1,1.1
PGT 128 IgG variant HC D72A (antibody),–,–,–,–,1,1.2,0.7,0.7,0.9
PGT 128 IgG variant HC G55D (antibody),–,–,–,–,2,2.3,1.4,2.5,0.7
PGT 128 IgG variant HC L51A (antibody),–,–,–,–,1.2,1.2,0.7,1.5,0.7
PGT 128 IgG variant HC L100A (antibody),–,–,–,–,0.8,2,–,1.3,1.7
PGT 128 IgG variant HC N33A (antibody),–,–,–,–,0.7,0.4,0.6,0.8,0.5
